According to ChEMBL document CHEMBL2413038, “Synthesis and bioevaluation of novel 4-aminoquinoline-tetrazole derivatives as potent antimalarial agents” (Eur J Med Chem, 2013):
Converted amounts (≈) assume the structure as drawn. The source made the active and inactive calls. The rule behind the calls is not given here.

Assays:
[1] = Selectivity index, ratio of CC50 for African green monkey Vero cells to IC50 for Plasmodium falciparum; type: functional
Plasmodium falciparum [2] = test: Resistance index, ratio of IC50 for chloroquine-resistant Plasmodium falciparum K1 to IC50 for chloroquine-sensitive Plasmodium falciparum 3D7; type: functional
Plasmodium falciparum [3] = test: Antimalarial activity against chloroquine-sensitive Plasmodium falciparum 3D7 after 72 hrs by MSF assay; type: functional, organism-based; settings: 3D7, 72 h
Plasma = test: Inhibition of beta-hematin formation in Plasmodium yoelii-infected Swiss albino mouse plasma using hemin as substrate after 16 hrs; type: functional, cell-free
Plasmodium falciparum [4] = test: Antimalarial activity against chloroquine-resistant Plasmodium falciparum K1 after 72 hrs by MSF assay; type: functional, organism-based; settings: K1, 72 h
Plasmodium yoelii [5] = test: Antimalarial activity against chloroquine-resistant Plasmodium yoelii N-67 infected in Swiss mouse assessed as cured animal at 50 mg/kg, ip qd for 4 days measured on day 28 post infection relative to control; type: functional
Plasmodium yoelii [6] = test: Antimalarial activity against chloroquine-resistant Plasmodium yoelii N-67 infected in Swiss mouse assessed as mouse survival at 50 mg/kg, ip qd for 4 days measured on day 28 post infection relative to control; type: functional
Plasmodium yoelii [7] = test: Antimalarial activity against chloroquine-resistant Plasmodium yoelii N-67 infected in Swiss mouse assessed as suppression of parasitaemia level at 50 mg/kg, ip qd for 4 days relative to control; type: functional; settings: route intraperitoneal
Plasmodium yoelii [8] = test: Antimalarial activity against chloroquine-resistant Plasmodium yoelii N-67 infected in Swiss mouse assessed as mean survival time at 50 mg/kg, ip qd for 4 days; type: functional; settings: route intraperitoneal
Plasmodium falciparum [9] = test: Ratio of chloroquine IC50 to compound IC50 for chloroquine-resistant Plasmodium falciparum K1; type: functional
Rattus norvegicus [10] = test: Volume of distribution in Sprague-Dawley rat at 5 mg/kg, po; type: ADME, organism-based; set-up: dose 5 mg/kg, route oral; settings: in vivo
[11] = Clearance in Sprague-Dawley rat at 5 mg/kg, po; type: ADME, organism-based; set-up: dose 5 mg/kg, route oral; settings: in vivo
Rattus norvegicus [12] = test: AUC (0 to t) in Sprague-Dawley rat at 5 mg/kg, po; type: ADME, organism-based, Plasma; set-up: dose 5 mg/kg, route oral; settings: in vivo
Plasmodium yoelii [13] = test: Antimalarial activity against chloroquine-resistant Plasmodium yoelii N-67 infected in Swiss mouse assessed as cured animal at 10 mg/kg, po for 4 days measured on day 28 post infection; type: functional, organism-based; set-up: dose 10 mg/kg
Rattus norvegicus [14] = test: Elimination half life in Sprague-Dawley rat at 5 mg/kg, po; type: ADME, organism-based; set-up: dose 5 mg/kg, route oral; settings: in vivo
Plasmodium yoelii [15] = test: Antimalarial activity against chloroquine-resistant Plasmodium yoelii N-67 infected in Swiss mouse assessed as mean survival time at 10 mg/kg, po for 4 days; type: functional
Rattus norvegicus [16] = test: Tmax in Sprague-Dawley rat at 5 mg/kg, po; type: ADME, organism-based; set-up: dose 5 mg/kg, route oral; settings: in vivo
Plasmodium yoelii [17] = test: Antimalarial activity against chloroquine-resistant Plasmodium yoelii N-67 infected in Swiss mouse assessed as mouse survival at 10 mg/kg, ip qd for 4 days measured on day 28 post infection; type: functional, organism-based; set-up: dose 10 mg/kg
Plasmodium yoelii [18] = test: Antimalarial activity against chloroquine-resistant Plasmodium yoelii N-67 infected in Swiss mouse assessed as cured animal at 100 mg/kg, po for 4 days measured on day 28 post infection relative to control; type: functional
Plasmodium yoelii [19] = test: Antimalarial activity against chloroquine-resistant Plasmodium yoelii N-67 infected in Swiss mouse assessed as suppression of parasitaemia level at 100 mg/kg, po qd for 4 days relative to control; type: functional
[20] = Elimination half life in Sprague-Dawley rat at 10 mg/kg, po; type: ADME, organism-based; set-up: dose 10 mg/kg, route oral; settings: in vivo, read-out: beta t1/2 (converted)
[21] = Clearance in Sprague-Dawley rat at 10 mg/kg, po; type: ADME, organism-based; set-up: dose 10 mg/kg, route oral; settings: in vivo
[22] = Tmax in Sprague-Dawley rat at 10 mg/kg, po; type: ADME, organism-based; set-up: dose 10 mg/kg, route oral; settings: in vivo
Plasmodium yoelii [23] = test: Antimalarial activity against chloroquine-resistant Plasmodium yoelii N-67 infected in Swiss mouse assessed as mean survival time at 100 mg/kg, po qd for 4 days; type: functional
[24] = Cmax in Sprague-Dawley rat at 10 mg/kg, po; type: ADME, organism-based; set-up: dose 10 mg/kg, route oral; settings: in vivo
Rattus norvegicus [25] = test: Volume of distribution in Sprague-Dawley rat at 10 mg/kg, po; type: ADME, organism-based; set-up: dose 10 mg/kg, route oral; settings: in vivo
[26] = AUC (0 to t) in Sprague-Dawley rat at 10 mg/kg, po; type: ADME, organism-based; set-up: dose 10 mg/kg, route oral; settings: plasma
Plasmodium yoelii [27] = test: Antimalarial activity against chloroquine-resistant Plasmodium yoelii N-67 infected in Swiss mouse assessed as mouse survival at 100 mg/kg, po qd for 4 days measured on day 28 post infection relative to control; type: functional

Structure (SMILES) | Ratio CC50/IC50 [1] | Ratio IC50 (Plasmodium falciparum [2]) | IC50 (Plasmodium falciparum [3]) | IC50 (Plasma) | inhibition (Plasma) | IC50 (Plasmodium falciparum [4]) | Activity (Plasmodium yoelii [5]) | Activity (Plasmodium yoelii [6]) | Activity (Plasmodium yoelii [7]) | MST (Plasmodium yoelii [8]) | other results
COc1cc(C(Nc2ccc(Nc3ccnc4cc(Cl)ccc34)cc2)c2nnnn2C(C)(C)C)cc(OC)c1OC (configuration not stated) | 300.57 | 10.5 | 54.2 nM | 5.65 µg/mL (≈ 9.84 µM) | Dose-dependent effect | 573 nM |  |  |  |  | 
COc1ccc(C(Nc2ccc(Nc3ccnc4cc(Cl)ccc34)cc2)c2nnnn2C(C)(C)C)cc1 (configuration not stated) | 702.34 | 6.6 | 57.7 nM | 5.55 µg/mL (≈ 10.8 µM) | Dose-dependent effect | 384 nM |  |  |  |  | 
Clc1ccc(C(Nc2ccc(Nc3ccnc4cc(Cl)ccc34)cc2)c2nnnn2C2CCCCC2)cc1 (configuration not stated) | 694.18 | 0.9 | 156 nM | 3.81 µg/mL (≈ 7 µM) | Dose-dependent effect | 139 nM | inactive | inactive | 20.43% | 10.4 days | 
Clc1ccc2c(Nc3ccc(NC(c4ccc(Br)cc4)c4nnnn4C4CCCCC4)cc3)ccnc2c1 (configuration not stated) | 1191.58 | 0.8 | 92.7 nM | 4.38 µg/mL (≈ 7.44 µM) | Dose-dependent effect | 73.7 nM | inactive | inactive | 69.56% | 12.6 days | Ratio IC50 (Plasmodium falciparum [9]): 3.38
CC(C)(C)n1nnnc1C(Nc1ccc(Nc2ccnc3cc(Cl)ccc23)cc1)c1cccc2ccccc12 (configuration not stated) | 3815.38 | 2.7 | 28 nM | 5.12 µg/mL (≈ 9.59 µM) | Dose-dependent effect | 77.8 nM | inactive | inactive | 57.03% | 12 days | Ratio IC50 (Plasmodium falciparum [9]): 3.38
CCN(CC)CCCC(C)Nc1ccnc2cc(Cl)ccc12 (configuration not stated) [CHLOROQUINE] |  |  |  | 3.95 µg/mL (≈ 12.3 µM) | Dose-dependent effect |  |  |  |  |  | Vd (Rattus norvegicus [10]): 1.49 L; CL/F [11]: 2.5 mL/min; AUCt (Rattus norvegicus [12]): 30.147 ng·h/mL; Activity (Plasmodium yoelii [13]): inactive; beta t1/2 (Rattus norvegicus [14]): 9.5 h; MST (Plasmodium yoelii [15]): 16.5 days; Tmax (Rattus norvegicus [16]): 0.91 h; Activity (Plasmodium yoelii [17]): inactive
CC(C)(C)n1nnnc1C(c1ccc(Cl)cc1)N1CCN(c2ccnc3cc(Cl)ccc23)CC1 (configuration not stated) | 182.96 | 0.2 | 787 nM | 5.32 µg/mL (≈ 10.7 µM) | Dose-dependent effect | 159 nM | inactive | inactive | 73.91% | 13 days | 
Cc1ccc(C(Nc2ccc(Nc3ccnc4cc(Cl)ccc34)cc2)c2nnnn2C(C)(C)C)cc1 (configuration not stated) |  | 0.07 | 1010 nM | 5.39 µg/mL (≈ 10.8 µM) | Dose-dependent effect | 75.4 nM | inactive | inactive | 21.3% | 11 days | Ratio IC50 (Plasmodium falciparum [9]): 3.38
CC(C)(C)n1nnnc1C(Nc1ccc(Nc2ccnc3cc(Cl)ccc23)cc1)c1ccc(Cl)c(Cl)c1 (configuration not stated) | 7076.29 | 12.8 | 11 nM | 5.4 µg/mL (≈ 9.77 µM) | Dose-dependent effect | 142 nM | inactive | inactive | 71.49% | 16.83 days | 
CC(C)(C)n1nnnc1C(NCCNc1ccnc2cc(Cl)ccc12)c1ccc(Cl)cc1 (configuration not stated) | 839.68 | 11.6 | 23.9 nM | 6.15 µg/mL (≈ 13.1 µM) | Dose-dependent effect | 278 nM |  |  |  |  | 
CC(C)(C)n1nnnc1C(NCCCNc1ccnc2cc(Cl)ccc12)c1cccc2ccccc12 (configuration not stated) | 58.67 | 0.8 | 216 nM | 4.45 µg/mL (≈ 8.9 µM) | Dose-dependent effect | 170 nM |  |  |  |  | 
CC(C)(C)n1nnnc1C(NCCNc1ccnc2cc(Cl)ccc12)c1cccc2ccccc12 (configuration not stated) | 305.32 | 1.5 | 120 nM | 6.33 µg/mL (≈ 13 µM) | Dose-dependent effect | 184 nM |  |  |  |  | 
CC(C)(C)n1nnnc1C(Nc1ccc(Nc2ccnc3cc(Cl)ccc23)cc1)c1ccc(F)cc1 (configuration not stated) | 3165.31 | 22.67 | 29.5 nM | 5.49 µg/mL (≈ 10.9 µM) | Dose-dependent effect | 669 nM |  |  |  |  | 
COc1ccc(C(Nc2ccc(Nc3ccnc4cc(Cl)ccc34)cc2)c2nnnn2C2CCCCC2)cc1OC (configuration not stated) | 49.73 | 0.1 | 853 nM | 5.19 µg/mL (≈ 9.1 µM) | Dose-dependent effect | 144 nM |  |  |  |  | 
CCc1ccc(C(Nc2ccc(Nc3ccnc4cc(Cl)ccc34)cc2)c2nnnn2C(C)(C)C)cc1 (configuration not stated) | 3652.19 | 13.4 | 51.4 nM | 5.95 µg/mL (≈ 11.6 µM) | Dose-dependent effect | 688 nM |  |  |  |  | 
CC(C)(C)n1nnnc1C(Nc1ccc(Nc2ccnc3cc(Cl)ccc23)cc1)c1ccc(Br)cc1 (configuration not stated) | 2332.43 | 19.8 | 11.8 nM | 5.65 µg/mL (≈ 10 µM) | Dose-dependent effect | 234 nM |  |  | 99.99% | 26 days | Activity (Plasmodium yoelii [18]): 40%; Activity (Plasmodium yoelii [5]; route intraperitoneal): 60%; Activity (Plasmodium yoelii [19]): 99.99%; Activity (Plasmodium yoelii [6]; route intraperitoneal): 80%; half-life [20]: 22.6 h; CL/F [21]: 32.3 mL/min; Tmax [22]: 1.5 h; MST (Plasmodium yoelii [23]): 25.6 days; Cmax [24]: 44.4 ng/mL; Vd (Rattus norvegicus [25]): 63.38 L; AUC(0-t) [26]: 704 ng·h/mL; Activity (Plasmodium yoelii [27]): 60%
CC(C)(C)n1nnnc1C(Nc1ccc(Nc2ccnc3cc(Cl)ccc23)cc1)c1ccc(Cl)cc1 (configuration not stated) | 4616.14 | 13.4 | 10.7 nM | 5.29 µg/mL (≈ 10.2 µM) | Dose-dependent effect | 143 nM |  |  | 99.99% | 23.6 days | Activity (Plasmodium yoelii [18]): 60%; Activity (Plasmodium yoelii [5]; route intraperitoneal): 60%; Activity (Plasmodium yoelii [19]): 99.99%; Activity (Plasmodium yoelii [6]; route intraperitoneal): 60%; half-life [20]: 5.27 h; CL/F [21]: 61.7 mL/min; Tmax [22]: 2 h; MST (Plasmodium yoelii [23]): 25.2 days; Cmax [24]: 49.2 ng/mL; Vd (Rattus norvegicus [25]): 28.16 L; AUC(0-t) [26]: 593 ng·h/mL; Activity (Plasmodium yoelii [27]): 60%
CC(C)(C)n1nnnc1C(Nc1ccc(Nc2ccnc3cc(Cl)ccc23)cc1)c1ccccc1 (configuration not stated) | 2383.47 |  | 59.6 nM | 5.55 µg/mL (≈ 11.5 µM) | Dose-dependent effect | > 1020 nM |  |  |  |  | 
COc1ccc(C(Nc2ccc(Nc3ccnc4cc(Cl)ccc34)cc2)c2nnnn2C(C)(C)C)cc1OC (configuration not stated) | 193.28 | 1 | 70.6 nM | 5.42 µg/mL (≈ 9.96 µM) | Dose-dependent effect | 76.2 nM | inactive | inactive | 26.91% | 9.8 days | 
CC(C)(C)n1nnnc1C(NCCCNc1ccnc2cc(Cl)ccc12)c1ccc(Cl)cc1 (configuration not stated) | 248.65 | 9.2 | 81.4 nM | 5.95 µg/mL (≈ 12.3 µM) | Dose-dependent effect | 754 nM |  |  |  |  | 
COc1ccc(C(NCCCNc2ccnc3cc(Cl)ccc23)c2nnnn2C(C)(C)C)cc1OC (configuration not stated) | 1662.92 | 2.3 | 57.9 nM | 5.5 µg/mL (≈ 10.8 µM) | Dose-dependent effect | 138 nM |  |  |  |  | 
